Results taken from US9663478B2, “Benzotriazine oxides as drugs targeting Mycobacterium tuberculosis” (priority 2011, dated 2017).
In brackets after ≈: the same amount, converted by molar mass.

What was measured:
Mtb H37Rv [1] = assay: TB MIC - SRI, resazurin-based microplate assay; format: cell-based, Mycobacterium tuberculosis; conditions: source CSU; SI Table 1
[2] = test system: Pseudomonas aeruginosa ATCC 27853; assay: Spectrum of antimicrobial activity; format: cell-based
[3] = test system: Acinetobacter baumannii BAA 1605; assay: Spectrum of antimicrobial activity; format: cell-based
[4] = test system: Enterococcus fecalis ATCC 29212; assay: Spectrum of antimicrobial activity; format: cell-based
[5] = Solubility, shake-flask method; format: physicochemical; conditions: 0.9% saline solution at pH 7.4, triplicate
Procedure: The solubility of these two compounds was measured in triplicate using the shake-flask method in a 0.9% saline solution at pH 7.4. Both 8a and 20q had acceptable solubilities of 1.35 mg/mL and 0.28 mg/mL, respectively.
Compounds were ground into a fine powders using a mortar and pestle and added to a 25 mL glass Erlenmeyer flask with 5 mL of a 0.9% saline solution at pH 7.4. Approximately 20 mg of compound was added to each flask to ensure saturation. The flasks were then vigorously stirred using a magnetic stir bar at 25° C. for 48 hours. The samples were then filtered through a Whatman PVDF membrane (0.45 μm pore size) syringe filter. The concentration of compound in the supernatant was then measured using HPLC quantitation at the maximum absorption wavelength for each compound.

[6] = test system: Staphylococcus aureus ATCC 29213; assay: Spectrum of antimicrobial activity; format: cell-based
[7] = test system: Mycobacterium smegmatis ATCC 10143; assay: Spectrum of antimicrobial activity; format: cell-based
[8] = test system: Enterobacter aerogenes ATCC 29751; assay: Spectrum of antimicrobial activity; format: cell-based
[9] = test system: Acinetobacter baumannii ATCC 17978; assay: Spectrum of antimicrobial activity; format: cell-based
[10] = test system: Salmonella choleraesuis ATCC 13311; assay: Spectrum of antimicrobial activity; format: cell-based
[11] = test system: Enterococcus faecium ATCC 19434; assay: Spectrum of antimicrobial activity; format: cell-based
Mtb H37Rv [12] = assay: TB MIC - ITR (UIC), Institute for Tuberculosis Research; format: cell-based, Mycobacterium tuberculosis; conditions: Mycobacterium tuberculosis, H37RV; Tables 1-4; read-out: TB MIC - ITR
NRP Mtb H37Rv cells = assay: Low-oxygen recovery assay (LORA) MIC; format: cell-based, Mycobacterium tuberculosis; conditions: Mycobacterium tuberculosis, H37RV, read-out: LORA MIC - ITR
[13] = test system: Moraxella catarrhalis ATCC 25238; assay: Spectrum of antimicrobial activity; format: cell-based
[14] = test system: Klebsiella pneumoniae ATCC 700721; assay: Spectrum of antimicrobial activity; format: cell-based
[15] = test system: Escherichia coli ATCC 25922; assay: Spectrum of antimicrobial activity; format: cell-based
[16] = test system: Salmonella typhimurium -Hisg46 SRI Collection; assay: Spectrum of antimicrobial activity; format: cell-based
Escherichia coli BAA 201 = assay: Spectrum of antimicrobial activity; format: cell-based
[17] = test system: Staphylococcus aureus HA-MRSA NRS 382; assay: Spectrum of antimicrobial activity; format: cell-based
[18] = test system: Mycobacterium abscessus ATCC 19977; assay: Spectrum of antimicrobial activity; format: cell-based
[19] = Plasma pharmacokinetics in female mice after oral administration; format: in vivo, mouse; conditions: 100 mg/kg
Procedure: In order to validate BTOs as a new lead series for the treatment of TB, we also evaluated their systemic exposure in the mouse after oral administration. A single dose (100 mg/kg) of 8a and 20q were administered to mice in order to profile the pharmacokinetics for the BTOs (Table 7). […] The elimination half-life was for each compound was shorter than our ideal target values, but the Tmax values indicate that they are rapidly absorbed after oral administration (FIGURE).
All pharmacokinetic studies were performed in accordance with SRI International's animal care policies in an AAALAC and OLAW accredited facility. The procedure for the pharmacokinetics studies followed a previously described method.^55 Briefly, the plasma pharmacokinetics of selected BTO derivatives were determined in female CD1 mice after administration of a single dose (100 mg/kg) by oral gavage. Blood was collected from three mice per time point at 5, 15, 30, and 60 min and 2, 4, 6, 8, and 24 h after dose administration. Means and standard deviations were calculated for the plasma drug concentrations at each time point. Pharmacokinetic analysis was performed using non compartmental methods (WinNonlin® Professional, Version 5.2, Pharsight Corp, Mountain View, Calif.). The following parameters were calculated: time to maximum plasma concentration (Tmax), maximum plasma concentration (Cmax), maximum plasma concentration extrapoloated to time 0 (C0), area under the plasma concentration-time curve to the last time point (AUClast) and to infinity (AUCinf).

[20] = test system: Klebsiella pneumoniae ATCC 43816; assay: Spectrum of antimicrobial activity; format: cell-based
[21] = test system: Escherichia coli pKM101 SRI Collection; assay: Spectrum of antimicrobial activity; format: cell-based
[22] = test system: Enterobacter aerogenes SRI Collection; assay: Spectrum of antimicrobial activity; format: cell-based
[23] = test system: Enterococcus fecalis ATCC 51575; assay: Spectrum of antimicrobial activity; format: cell-based

With `CCNc1n[n+]([O-])c2ccccc2[n+]1[O-]` [Compound 8a, 3-(ethylamino)benzo[e][1,2,4]triazine 1,4-dioxide] the “Antimicrobial activity, Mtb H37Rv” value (Mtb H37Rv [1]) was 1.2 µg/mL, the “Antimicrobial activity, Pseudomonas aeruginosa” value [2] was over 32 µg/mL and the “Antimicrobial activity, Acinetobacter baumannii” value [3] was over 32 µg/mL. For the same molecule, the “Antimicrobial activity, Enterococcus fecalis” value [4] was 16 µg/mL, the solubility [5] was 1.35 mg/mL (≈ 6550 µM) and the “Antimicrobial activity, Staphylococcus aureus” value [6] was over 32 µg/mL. The “Antimicrobial activity, Mycobacterium smegmatis” value [7] was 5.0 µg/mL, the “Antimicrobial activity, Enterobacter aerogenes” value [8] was over 32 µg/mL and the “Antimicrobial activity, Acinetobacter baumannii” value [9] was 32 µg/mL. The “Antimicrobial activity, Salmonella choleraesuis” value [10] was 32 µg/mL, the “Antimicrobial activity, Enterococcus faecium” value [11] was over 32 µg/mL and the MIC (Mtb H37Rv [12]) was 0.57 µg/mL (≈ 2.76 µM). For the same molecule, the MIC (NRP Mtb H37Rv cells) was 0.37 µg/mL (≈ 1.79 µM), the “Antimicrobial activity, Moraxella catarrhalis” value [13] was 32 µg/mL and the “Antimicrobial activity, Klebsiella pneumoniae” value [14] was over 32 µg/mL. The “Antimicrobial activity, Escherichia coli” value [15] was 16 µg/mL, the “Antimicrobial activity, Salmonella typhimurium -Hisg46” value [16] was over 32 µg/mL and the “Antimicrobial activity, Escherichia coli” value (Escherichia coli BAA 201) was 16 µg/mL. For the same molecule, the “Antimicrobial activity, Staphylococcus aureus HA-MRSA” value [17] was 16 to 32 µg/mL, the “susceptibility of M. abscessus” value [18] was “resistant” and the “Antimicrobial activity, Mycobacterium abscessus” value ([18]; ATCC 19977) was over 32 µg/mL. The AUCinf ([19]; female mice, oral) was 6937 ng·h/mL, the AUClast ([19]; female mice, oral) was 6578 ng·h/mL and the Cmax ([19]; female mice, oral) was 9540 ng/mL. For the same molecule, the Tmax ([19]; female mice, oral) was 4.8 min, the t1/2 ([19]; female mice, oral) was 1.5 h and the “plasma drug concentration at the 24 hr time point” value ([19]; mouse, in vivo, po) was “lower than the limit of quantitation”. The “Antimicrobial activity, Klebsiella pneumoniae” value [20] was over 32 µg/mL, the “Antimicrobial activity, Escherichia coli pKM101” value [21] was 32 μg/mL and the “Antimicrobial activity, Enterobacter aerogenes” value [22] was over 32 µg/mL. The “Antimicrobial activity, Enterococcus fecalis” value [23] was 32 µg/mL.
